According to PubChem BioAssay AID2060903 (Molecular Pharmacology Branch, DTP, NCI, 2025):

System: 377384-186-R-J1-PDC complex spheroid viability
Assay: Anticancer human tumor 377384-186-R-J1-PDC patient-derived pancreatic carcinoma cell line growth inhibition [RAS]
Conditions: for viability, T/C: stronger effect = lower value
Outline: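 Tumour cells grown as complex spheroids with HUVEC endothelial cells and mesenchymal stem cells, treated with RAS pathway inhibitor combinations. Each agent spans half-log steps from near clinical Cmax, or 10 microM where Cmax is unknown.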

[1] = curve of first compound, second compound 0.000949 µM
[2] = curve of first compound, second compound 0.003 µM
[3] = curve of first compound, second compound 0.00949 µM
[4] = curve of first compound, second compound 0.03 µM
[5] = curve of first compound, second compound 0.0949 µM
[6] = curve of first compound, second compound 0.3 µM
[7] = second compound 0.000949 µM, first compound 0.0316 µM
[8] = second compound 0.000949 µM, first compound 0.1 µM
[9] = second compound 0.000949 µM, first compound 0.316 µM
[10] = second compound 0.000949 µM, first compound 1 µM
[11] = second compound 0.003 µM, first compound 0.0316 µM
[12] = second compound 0.003 µM, first compound 0.1 µM
[13] = second compound 0.003 µM, first compound 0.316 µM
[14] = second compound 0.003 µM, first compound 1 µM
[15] = second compound 0.00949 µM, first compound 0.0316 µM
[16] = second compound 0.00949 µM, first compound 0.1 µM
[17] = second compound 0.00949 µM, first compound 0.316 µM
[18] = second compound 0.00949 µM, first compound 1 µM
[19] = second compound 0.03 µM, first compound 0.0316 µM
[20] = second compound 0.03 µM, first compound 0.1 µM
[21] = second compound 0.03 µM, first compound 0.316 µM
[22] = second compound 0.03 µM, first compound 1 µM
[23] = second compound 0.0949 µM, first compound 0.0316 µM
[24] = second compound 0.0949 µM, first compound 0.1 µM
[25] = second compound 0.0949 µM, first compound 0.316 µM
[26] = second compound 0.0949 µM, first compound 1 µM
[27] = second compound 0.3 µM, first compound 0.0316 µM
[28] = second compound 0.3 µM, first compound 0.1 µM
[29] = second compound 0.3 µM, first compound 0.316 µM
[30] = second compound 0.3 µM, first compound 1 µM
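Further: spheroids exposed to compounds for seven days before readout.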

SMILES: C=CC(=O)Nc1cc(Nc2nccc(-c3cn(C)c4ccccc34)n2)c(OC)cc1N(C)CCN(C)C + CCn1c(-c2cccnc2C(C)OC)c2c3cc(ccc31)N1CCOC(CC(NC(=O)C(C(C)C)N(C)C(=O)C3(F)CCN(C(=O)C#CC(C)(C)N(C)C)CC3)C(=O)N3CCCC(N3)C(=O)OCC(C)(C)C2)C1
- IC50 [1]: 727 nM
- IC50 [2]: 694 nM
- IC50 [3]: 682 nM
- IC50 [4]: 699 nM
- IC50 [5]: 598 nM
- IC50 [6]: 639 nM
- viability, T/C (second compound 0.000949 µM, first compound 0.00316 µM): 107%
- viability, T/C (second compound 0.000949 µM, first compound 0.01 µM): 83.9%
- viability, T/C [7]: 94.3%
- viability, T/C [8]: 84.5%
- viability, T/C [9]: 77.6%
- viability, T/C [10]: 40%
- viability, T/C (second compound 0.003 µM, first compound 0.00316 µM): 93.3%
- viability, T/C (second compound 0.003 µM, first compound 0.01 µM): 96.2%
- viability, T/C [11]: 101%
- viability, T/C [12]: 80%
- viability, T/C [13]: 62.9%
- viability, T/C [14]: 44.2%
- viability, T/C (second compound 0.00949 µM, first compound 0.00316 µM): 101%
- viability, T/C (second compound 0.00949 µM, first compound 0.01 µM): 100%
- viability, T/C [15]: 90.5%
- viability, T/C [16]: 84.6%
- viability, T/C [17]: 64.1%
- viability, T/C [18]: 42.6%
- viability, T/C (second compound 0.03 µM, first compound 0.00316 µM): 104%
- viability, T/C (second compound 0.03 µM, first compound 0.01 µM): 99.1%
- viability, T/C [19]: 97.6%
- viability, T/C [20]: 75.6%
- viability, T/C [21]: 69.9%
- viability, T/C [22]: 41.9%
- viability, T/C (second compound 0.0949 µM, first compound 0.00316 µM): 91.3%
- viability, T/C (second compound 0.0949 µM, first compound 0.01 µM): 90.2%
- viability, T/C [23]: 85%
- viability, T/C [24]: 76.7%
- viability, T/C [25]: 66%
- viability, T/C [26]: 37.7%
- viability, T/C (second compound 0.3 µM, first compound 0.00316 µM): 77.7%
- viability, T/C (second compound 0.3 µM, first compound 0.01 µM): 81%
- viability, T/C [27]: 80.7%
- viability, T/C [28]: 82.4%
- viability, T/C [29]: 64.3%
- viability, T/C [30]: 40.9%

SMILES: C[C@@H](NC(=O)c1ncnc(N)c1Cl)c1ncc(C(=O)Nc2cc(C(F)(F)F)c(Cl)cn2)s1 + CCn1c(-c2cc(N3CCN(C)CC3)cnc2C(C)OC)c2c3cc(ccc31)-c1csc(n1)CC(NC(=O)C1CC1C)C(=O)N1CCCC(N1)C(=O)OCC(C)(C)C2
- IC50 [1]: > 10000 nM
- IC50 [2]: < 31.6 nM
- IC50 [3]: < 31.6 nM
- IC50 [4]: < 31.6 nM
- IC50 [5]: < 31.6 nM
- IC50 [6]: < 31.6 nM
- viability, T/C [7]: 60.5%
- viability, T/C [8]: 68%
- viability, T/C [9]: 62.4%
- viability, T/C [10]: 69.9%
- viability, T/C (second compound 0.000949 µM, first compound 3.16 µM): 65.2%
- viability, T/C (second compound 0.000949 µM, first compound 10 µM): 49%
- viability, T/C [11]: 39.1%
- viability, T/C [12]: 36.5%
- viability, T/C [13]: 34.7%
- viability, T/C [14]: 40.3%
- viability, T/C (second compound 0.003 µM, first compound 3.16 µM): 29.3%
- viability, T/C (second compound 0.003 µM, first compound 10 µM): 19.9%
- viability, T/C [15]: 8.23%
- viability, T/C [16]: 12.1%
- viability, T/C [17]: 12.7%
- viability, T/C [18]: 11.6%
- viability, T/C (second compound 0.00949 µM, first compound 3.16 µM): 14%
- viability, T/C (second compound 0.00949 µM, first compound 10 µM): 11.2%
- viability, T/C [19]: 2.09%
- viability, T/C [20]: 2.73%
- viability, T/C [21]: 3.94%
- viability, T/C [22]: 4.72%
- viability, T/C (second compound 0.03 µM, first compound 3.16 µM): 3.74%
- viability, T/C (second compound 0.03 µM, first compound 10 µM): 2.97%
- viability, T/C [23]: 2.41%
- viability, T/C [24]: 2.22%
- viability, T/C [25]: 2.96%
- viability, T/C [26]: 3.02%
- viability, T/C (second compound 0.0949 µM, first compound 3.16 µM): 2.41%
- viability, T/C (second compound 0.0949 µM, first compound 10 µM): 1.87%
- viability, T/C [27]: 1.66%
- viability, T/C [28]: 2.36%
- viability, T/C [29]: 2.7%
- viability, T/C [30]: 2.88%
- viability, T/C (second compound 0.3 µM, first compound 3.16 µM): 2.27%
- viability, T/C (second compound 0.3 µM, first compound 10 µM): 2.12%

SMILES: C#Cc1c(F)ccc2cc(O)cc(-c3ncc4c(N5CC6CCC(C5)N6)nc(OCC56CCCN5CC(F)C6)nc4c3F)c12 (stereo unspecified)
- viability, T/C (compound 0.0316 µM): 25.6% [middle of 8 runs]
- viability, T/C (compound 0.1 µM): 11.4% [middle of 8 runs]
- viability, T/C (compound 0.316 µM): 4.64% [middle of 8 runs]
- viability, T/C (compound 1 µM): 3.15% [middle of 8 runs]
- viability, T/C (compound 3.16 µM): 2.31% [middle of 8 runs]
- viability, T/C (compound 10 µM): 1.33% [middle of 8 runs]
- IC50 (compound alone, run of 09/09/2024): < 31.6 nM
